Assays:
Test in all cases: NCI-60 SRB screening (one-dose and five-dose)
Assay type in all cases: cell-based, human
MDA-MB-435 = conditions: MDA-MB-435, 10 μM, 48 h
Experimental: (§1) The compounds were added at a single concentration and the cell cultures were incubated for 48 h. The end point determinations were made with a protein binding dye, sulforhodamine B (SRB). […] The percentage of growth was evaluated spectrophotometrically versus controls not treated with test agents after 48-h exposure and using SRB protein assay to estimate cell viability or growth. […] Furthermore, mean graph midpoints (MG_MID) were calculated for each of the parameters, giving an average activity parameter over all cell lines for the tested compound. For the MG_MID calculation, insensitive cell lines were included with the highest concentration tested.

TK-10 = conditions: TK-10, 10 μM, 48 h
Experimental: as §1

OVCAR-5 = conditions: OVCAR-5, 10 μM, 48 h
Experimental: as §1

K-562 = conditions: K-562, 10 μM, 48 h
Experimental: as §1

BT-549 = conditions: BT-549, 10 μM, 48 h
Experimental: as §1

CCRF-CEM = conditions: 10 μM, 48 h
Experimental: as §1

DU-145 = conditions: DU-145, 10 μM, 48 h
Experimental: as §1

SN12C = conditions: 10 μM, 48 h
Experimental: as §1

A549/ATCC = conditions: 10 μM, 48 h
Experimental: as §1

HOP-62 = conditions: HOP-62, 10 μM, 48 h
Experimental: as §1

NCI/ADR-RES = conditions: 10 μM, 48 h
Experimental: as §1

SF-295 = conditions: SF-295, 10 μM, 48 h
Experimental: as §1

HL-60(TB) = conditions: 10 μM, 48 h
Experimental: as §1

HCT-116 = conditions: HCT-116, 10 μM, 48 h
Experimental: as §1

NCI-H322M = conditions: 10 μM, 48 h
Experimental: as §1

HCC-2998 = conditions: HCC-2998, 10 μM, 48 h
Experimental: as §1

PC-3 = conditions: PC-3, 10 μM, 48 h
Experimental: as §1

ACHN = conditions: 10 μM, 48 h
Experimental: as §1

OVCAR-4 = conditions: OVCAR-4, 10 μM, 48 h
Experimental: as §1

NCI-H460 = conditions: NCI-H460, 10 μM, 48 h
Experimental: as §1

SNB-19 = conditions: SNB-19, 10 μM, 48 h
Experimental: as §1

NCI-H522 = conditions: NCI-H522, 10 μM, 48 h
Experimental: as §1

MDA-MB-231/ATCC = conditions: 10 μM, 48 h
Experimental: as §1

NCI-H226 = conditions: NCI-H226, 10 μM, 48 h
Experimental: as §1

HCT-15 = conditions: HCT-15, 10 μM, 48 h
Experimental: as §1

HT29 = conditions: HT29, 10 μM, 48 h
Experimental: as §1

SW-620 = conditions: SW-620, 10 μM, 48 h
Experimental: as §1

SK-MEL-5 = conditions: SK-MEL-5, 10 μM, 48 h
Experimental: as §1

HS 578T = conditions: 10 μM, 48 h
Experimental: as §1

MALME-3M = conditions: 10 μM, 48 h
Experimental: as §1

CAKI-1 = conditions: CAKI-1, 10 μM, 48 h
Experimental: as §1

MCF7 = conditions: MCF7, 10 μM, 48 h
Experimental: as §1

T-47D = conditions: T-47D, 10 μM, 48 h
Experimental: as §1

SF-268 = conditions: SF-268, 10 μM, 48 h
Experimental: as §1

KM-12 = conditions: KM-12, 10 μM, 48 h
Experimental: as §1

786-0 = conditions: 786-0, 10 μM, 48 h
Experimental: as §1

UACC-257 = conditions: UACC-257, 10 μM, 48 h
Experimental: as §1

SF-539 = conditions: SF-539, 10 μM, 48 h
Experimental: as §1

MDA-MB-468 = conditions: MDA-MB-468, 10 μM, 48 h
Experimental: as §1

SK-MEL-28 = conditions: SK-MEL-28, 10 μM, 48 h
Experimental: as §1

COC(=O)[C@]12CC[C@@H](C(C)=O)[C@@H]1[C@H]1CC[C@@H]3[C@@]4(C)C/C(=C\c5cccnc5)C(=O)C(C)(C)[C@@H]4CC[C@@]3(C)[C@]1(C)CC2 [Compound 8, Methyl 3,20-dioxo-2-(3-pyridinylidene)-29-nor-lup-28-oate]
Growth Percent (MDA-MB-435): 72.63%
Growth Percent (TK-10): 132.71%
Growth Percent (OVCAR-5): 114.28%
Growth Percent (K-562): 18.29%
Growth Percent (BT-549): 46.03%
Growth Percent (CCRF-CEM): 7.57%
Growth Percent (DU-145): 68.80%
Growth Percent (SN12C): 57.75%
Growth Percent (A549/ATCC): 51.40%
Growth Percent (HOP-62): 102.96%
Growth Percent (NCI/ADR-RES): 52.54%
Growth Percent (SF-295): 75.30%
Growth Percent (HL-60(TB)): −2.67%
Growth Percent (HCT-116): 3.92%
Growth Percent (NCI-H322M): 93.90%
Growth Percent (HCC-2998): 75.76%
Growth Percent (PC-3): 24.42%
Growth Percent (ACHN): 32.49%
Growth Percent (OVCAR-4): 26.68%
Growth Percent (NCI-H460): 70.90%
Growth Percent (SNB-19): 67.72%
Growth Percent (NCI-H522): 47.50%
Growth Percent (MDA-MB-231/ATCC): 76.56%
Growth Percent (NCI-H226): 48.05%
Growth Percent (HCT-15): 23.22%
Growth Percent (HT29): 16.53%
Growth Percent (SW-620): 25.33%
Growth Percent (SK-MEL-5): 39.76%
Growth Percent (HS 578T): 74.77%
Growth Percent (MALME-3M): 29.95%
Growth Percent (CAKI-1): 51.03%
Growth Percent (MCF7): 19.18%
Growth Percent (T-47D): 24.42%
Growth Percent (SF-268): 68.63%
Growth Percent (KM-12): 60.52%
Growth Percent (786-0): 84.87%
Growth Percent (UACC-257): 58.14%
Growth Percent (SF-539): 81.03%
Growth Percent (MDA-MB-468): 55.75%
Growth Percent (SK-MEL-28): 31.54%

Source: paper PMC8509773, “3-Pyridinylidene Derivatives of Chemically Modified Lupane and Ursane Triterpenes as Promising Anticancer Agents by Targeting Apoptosis” (International Journal of Molecular Sciences, 2021)
